The term IC50 denotes the concentration at which inhibition is half-maximal. By melting point is commonly meant the temperature, or range, at which the solid turns liquid.

Structures can show the parent of a compound that is named as a salt. A value given as a limit tells only on which side of the number the result lay.

Here are results for 6 compounds from patent US6380192B1, “Triazine compounds and method of use therefor” (Alteon, Inc., priority 1996, dated 2002).

The test system of data set [1] is N-acetyl glycyl-lysine methyl ester. The data set is described as follows: Inhibition of cross-linking of N-acetyl glycyl-lysine methyl ester in the presence of ribose (fluorescence). It counts as biochemical. Conditions: 0.5 M sodium phosphate buffer pH 7.4, 37° C., 16-24 hours; read-out: IC50 inhibition of cross-linking of N-acetylglycyllysine methyl ester with ribose. An excerpt: The following method was used to evaluate the ability of the compounds of the present invention to inhibit the cross-linking of N-acetyl glycyl-lysine methyl ester in the presence of ribose.
N-acetylglycyllysine methyl ester (DP in formula below)
Ribose (R in formula below)
Test compounds (C in formula below)
0.5 M sodium phosphate buffer pH 7.4
N-acetylglycyllysine methyl ester in 0.5M sodium phosphate buffer, pH 7.4
Test compounds dissolved in the above buffer and the pH is adjusted to 7.4, if necessary
Reaction mixtures are prepared as follows:
and incubated at 37° C. for 16-24 hours. At the end of the incubation period reaction mixture is diluted with 3 ml distilled water and the fluorescence is read using an excitation wavelength of 350 nm and emission wavelength of […]. The inhibition of the cross-linking is calculated from the decrease in the fluorescence in the presence of the test compounds according to the formula:
Inhibition (%)=100×[DPRC fluorescence−RC fluorescence]/DPR fluorescence
The Inhibition by various test compounds (IC50) is as follows: […]

In a further data set the test system is red blood cells. The settings on record: in vivo; cited from earlier work.
In a further data set the test system is diabetic rats. The settings on record: cited from earlier work.
The next data set deals with kidney. Conditions: in vivo; cited from earlier work.
In data set [2] the test system is streptozotocin-diabetic rat. The settings on record: cited from earlier work.

For the compound “2-methyl-[6′-(3′,4′-diamino-5(4H)-one-1,2,4-triazinyl)]hydrazide”, in data set [1], the IC50 was 830 µM.

`COc1cccc(C(=O)C=C2NN=C(N)N(N)C2=O)c1` [3,4-diamino-6-(3′-methoxyphenylcarbonylmethylene)-1,2,4-triazine-5(4H)-one]: the IC50 in data set [1] is > 10000 µM.

With `CCCCc1nnc(N)n(N)c1=O` [3,4-diamino-6-butyl-1,2,4-triazine-5(4H)-one], the half-maximal inhibitory concentration (IC50) in data set [1] was found to be 1600 µM.

Regarding `Cl.NNc1nnc(Cc2ccc(O)cc2)c(=O)n1N` [4-amino-3-hydrazino-6-(4′-hydroxybenzyl)-1,2,4-triazin-5(4H)-one hydrochloride], the melting point was 218 to 222 °C (dec.). In data set [1], the IC50 is > 1000 µM.

As to `Cc1nnc(NN)n(N)c1=O` [4-amino-3-hydrazino-6-methyl-1,2,4-triazin-5(4H)-one hydrochloride], the IC50 in data set [1] was < 3000 µM.

`N=C(N)NN` [aminoguanidine]: the “Diabetes-induced changes in the deformability of red blood cells” value in the data set on red blood cells is listed as “has been shown to prevent it in vivo”. The “Aortic wall protein cross-linking” value in the data set with diabetic rats was “diminishes aortic wall protein cross-linking”. In addition, the “Immunoglobulin trapping in the kidney” value in the data set with kidney is on record as “reduction of immunoglobulin trapping in the kidney”. Further, in data set [2], the “Increased glomerular basement membrane thickness” value was “prevented”.
